The results in this text go back to patent US20250304567A1, “PYRROLIDIONE DERIVATIVES AS INHIBITORS OF NF KAPPA B INDUCING KINASE” (priority 2022, published 2025).

For orientation: IC50 means the concentration needed to halve the response being measured.

The structures appear in SMILES notation. Where two headings read alike, the source gives them in different places. Where only a bound is given, the exact number is not on record here.

The target in test [1] is Recombinant Human NF-kappaB-Inducing Kinase (NIK/MAP3K14) (Homo sapiens, UniProt Q99558). Nature of the test: Inhibition of auto-phosphorylation of recombinant human NIK/MAP3K14 activity (AlphaScreen). Format: biochemical. The note with it: 5 μM ATP, 1 nM NIK, average if tested more than once. The method, boiled down:
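GST-tagged NIK (1 nM) auto-phosphorylation with 5 μM ATP, 2 h at 25 °C, pH 7.5 Tris buffer, 0.7% DMSO; stopped with anti-phospho-IKK Ser176/180 antibody and read by AlphaScreen. Signal normalized to full-activity and no-enzyme/no-ATP controls; IC50 from sigmoidal fit of % inhibition vs log concentration.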
(In Alpha technology, singlet oxygen from a donor bead excites a nearby acceptor bead.)

In test [2] the test system is p-IKKa levels in L363 (NIK translocated multiple myeloma) cells. Description: Effect of compounds on p-IKKa levels in L363 (NIK translocated multiple myeloma) cells (AlphaLISA SureFire Ultra p-IKKa Ser176/180). Format: cell-based, human. The note with it: average if tested more than once, read-out: Assay 2 IC50. The gist of the method:
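L363 multiple myeloma cells, BAFF-stimulated overnight (250 ng/ml), then 6 h at 37 °C with compound (11-point 1:3 series, 0.3% DMSO) plus BAFF and 10 μM MG132. p-IKKa Ser176/180 read by AlphaLISA SureFire Ultra; IC50 from sigmoidal fit normalised to stimulated and unstimulated controls.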

Setting [3] is: Homo sapiens, L-363, p-IKKa levels in L363 cells.

Chain of Recombinant Human NF-kappaB-Inducing Kinase (NIK/MAP3K14) (Q99558 whole entry): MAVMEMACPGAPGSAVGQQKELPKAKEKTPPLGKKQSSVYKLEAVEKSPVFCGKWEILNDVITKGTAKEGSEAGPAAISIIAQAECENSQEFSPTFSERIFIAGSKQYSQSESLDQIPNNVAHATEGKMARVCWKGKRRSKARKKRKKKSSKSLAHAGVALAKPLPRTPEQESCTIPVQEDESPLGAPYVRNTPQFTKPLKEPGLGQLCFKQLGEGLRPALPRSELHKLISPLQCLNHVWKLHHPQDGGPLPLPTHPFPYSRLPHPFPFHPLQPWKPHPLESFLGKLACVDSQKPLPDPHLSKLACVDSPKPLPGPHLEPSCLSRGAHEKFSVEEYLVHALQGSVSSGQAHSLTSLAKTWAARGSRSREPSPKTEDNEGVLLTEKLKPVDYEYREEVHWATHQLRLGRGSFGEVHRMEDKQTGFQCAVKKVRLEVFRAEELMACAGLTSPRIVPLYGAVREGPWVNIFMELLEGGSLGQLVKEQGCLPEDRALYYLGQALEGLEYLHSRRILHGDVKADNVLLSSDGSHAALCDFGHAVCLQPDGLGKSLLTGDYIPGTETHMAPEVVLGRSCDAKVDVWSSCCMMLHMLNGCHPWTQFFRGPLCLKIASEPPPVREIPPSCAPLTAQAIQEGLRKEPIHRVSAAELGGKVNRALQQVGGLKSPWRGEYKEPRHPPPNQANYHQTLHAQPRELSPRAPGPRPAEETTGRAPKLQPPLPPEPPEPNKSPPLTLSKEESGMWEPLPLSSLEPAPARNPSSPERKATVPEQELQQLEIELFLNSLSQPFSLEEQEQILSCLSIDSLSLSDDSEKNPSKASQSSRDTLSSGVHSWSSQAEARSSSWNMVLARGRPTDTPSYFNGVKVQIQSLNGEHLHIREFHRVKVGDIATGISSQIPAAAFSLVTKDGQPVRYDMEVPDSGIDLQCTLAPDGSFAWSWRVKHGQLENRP

`CNC(=O)c1ccc(C)c(Nc2nccc(-c3csc(-c4cccc([C@]5(O)CCN(C)C5=O)c4)n3)n2)c1` [Example 10, (R)-3-((4-(2-(3-(3-Hydroxy-1-methyl-2-oxopyrrolidin-3-yl)phenyl)thiazol-4-yl)pyrimidin-2-yl)amino)-N,4-dimethylbenzamide]: the IC50 in test [1] is less than 100 nM; in test [2] (setting [3]), 100 to 500 nM.

In the case of `COCCOc1nn(CC(F)F)cc1Nc1nccc(-c2csc(-c3cccc([C@]4(O)CCN(C)C4=O)c3)n2)n1` [Example 11, (R)-3-(3-(4-(2-((1-(2,2-Difluoroethyl)-3-(2-methoxyethoxy)-1H-pyrazol-4-yl)amino)pyrimidin-4-yl)thiazol-2-yl)phenyl)-3-hydroxy-1-methylpyrrolidin-2-one], the IC50 in test [1] and in test [2] (setting [3]) was less than 100 nM each time.

For `CNC(=O)c1cc(Nc2nccc(-c3csc(-c4cccc([C@]5(O)CCN(C)C5=O)c4)n3)n2)c(OC2CC2)cc1F` [Example 12, (R)-4-Cyclopropoxy-2-fluoro-5-((4-(2-(3-(3-hydroxy-1-methyl-2-oxopyrrolidin-3-yl)phenyl)thiazol-4-yl)pyrimidin-2-yl)amino)-N-methylbenzamide], the IC50 in test [1] is less than 100 nM; in test [2] (setting [3]), 100 to 500 nM.

`CNC(=O)c1cc(Nc2nccc(-c3csc(-c4cccc([C@]5(O)CCN(C)C5=O)c4)n3)n2)n(CC(C)C)n1` [Example 13, (R)-5-((4-(2-(3-(3-Hydroxy-1-methyl-2-oxopyrrolidin-3-yl)phenyl)thiazol-4-yl)pyrimidin-2-yl)amino)-1-isobutyl-N-methyl-1H-pyrazole-3-carboxamide]: the concentration for half-maximal inhibition (IC50) is less than 100 nM in test [1] and 100 to 500 nM in test [2] (setting [3]).

As to `Cc1cc(Nc2nccc(-c3csc(-c4cccc([C@]5(O)CCN(C)C5=O)c4)n3)n2)c(=O)n(C)c1` [Example 14, (R)-3-((4-(2-(3-(3-Hydroxy-1-methyl-2-oxopyrrolidin-3-yl)phenyl)thiazol-4-yl)pyrimidin-2-yl)amino)-1,5-dimethylpyridin-2(1H)-one], the IC50 in test [1] is less than 100 nM; in test [2] (setting [3]) it was 100 to 500 nM.

Regarding `CNC(=O)c1cc(Nc2nccc(-c3csc(-c4cccc([C@]5(O)CCN(C)C5=O)c4)n3)n2)n(C2CCCC2)n1` [Example 15, (R)-1-Cyclopentyl-5-((4-(2-(3-(3-hydroxy-1-methyl-2-oxopyrrolidin-3-yl)phenyl)thiazol-4-yl)pyrimidin-2-yl)amino)-N-methyl-1H-pyrazole-3-carboxamide], the half-inhibitory concentration (IC50) in test [1] was less than 100 nM; in test [2] (setting [3]), 100 to 500 nM.

For the molecule `Cc1cnc(Nc2ccn(C)n2)nc1-c1csc(-c2cccc([C@]3(O)CCN(C)C3=O)c2)n1` [Example 16, (R)-3-Hydroxy-1-methyl-3-(3-(4-(5-methyl-2-((1-methyl-1H-pyrazol-3-yl)amino)pyrimidin-4-yl)thiazol-2-yl)phenyl)pyrrolidin-2-one], the IC50 in test [1] is 100 to 500 nM; in test [2] (setting [3]) it was greater than 501 nM.

As to `Cc1sc(-c2cccc([C@]3(O)CCN(C)C3=O)c2)nc1-c1ccnc(Nc2ccn(C)n2)n1` [Example 17, (R)-3-Hydroxy-1-methyl-3-(3-(5-methyl-4-(2-((1-methyl-1H-pyrazol-3-yl)amino)pyrimidin-4-yl)thiazol-2-yl)phenyl)pyrrolidin-2-one], the figures for the IC50 in test [1] and in test [2] (setting [3]) were less than 100 nM and greater than 501 nM, respectively.

For the molecule `CN1CC[C@@](O)(c2cccc(-c3csc(-c4ccnc(Nc5cnn(CC6CC6)c5)n4)n3)c2)C1=O` [Example 20, (R)-3-(3-(2-(2-((1-(cyclopropylmethyl)-1H-pyrazol-4-yl)amino)pyrimidin-4-yl)thiazol-4-yl)phenyl)-3-hydroxy-1-methylpyrrolidin-2-one], the IC50 is 100 to 500 nM in test [1] and greater than 501 nM in test [2] (setting [3]).

For `CN1CC[C@@](O)(c2cccc(-c3cccc(-c4ccnc(Nc5ccn(C)n5)n4)n3)c2)C1=O` [Example 22, (R)-3-Hydroxy-1-methyl-3-(3-(6-(2-((1-methyl-1H-pyrazol-3-yl)amino)pyrimidin-4-yl)pyridin-2-yl)phenyl)pyrrolidin-2-one], the concentration for half-maximal inhibition (IC50) in test [1] and in test [2] (setting [3]) was greater than 501 nM in each case.

On to `CN1CC[C@@](O)(c2cccc(-c3cccc(-c4ccnc(NCCCO)n4)n3)c2)C1=O` [Example 23, (R)-3-Hydroxy-3-(3-(6-(2-((3-hydroxypropyl)amino)pyrimidin-4-yl)pyridin-2-yl)phenyl)-1-methylpyrrolidin-2-one], for which the IC50 in test [1] and in test [2] (setting [3]) was greater than 501 nM each time.

For `Cc1cc(Nc2nccc(-c3csc(-c4cccc([C@]5(O)CCN(C)C5=O)c4)n3)n2)ccn1` [Example 43, (R)-3-Hydroxy-1-methyl-3-(3-(4-(2-((2-methylpyridin-4-yl)amino)pyrimidin-4-yl)thiazol-2-yl)phenyl)pyrrolidin-2-one], the IC50 in test [1] is less than 100 nM; in test [2] (setting [3]), 100 to 500 nM.

On to `CN1CC[C@@](O)(c2cccc(-c3csc(-c4ccnc(Nc5cnn(C(CO)CO)c5)n4)n3)c2)C1=O` [Example 44, (R)-3-(3-(2-(2-((1-(1,3-dihydroxypropan-2-yl)-1H-pyrazol-4-yl)amino)pyrimidin-4-yl)thiazol-4-yl)phenyl)-3-hydroxy-1-methylpyrrolidin-2-one], for which the 50% inhibitory concentration (IC50) is less than 100 nM in test [1] and greater than 501 nM in test [2] (setting [3]).

As to `CC(Nc1nccc(-c2csc(-c3cccc([C@]4(O)CCN(C)C4=O)c3)n2)n1)c1nc2ccccc2[nH]1` (stereo partly drawn) [Example 45, (R)-3-(3-(4-(2-(((R,S)-1-(1H-benzo[d]imidazol-2-yl)ethyl)amino)pyrimidin-4-yl)thiazol-2-yl)phenyl)-3-hydroxy-1-methylpyrrolidin-2-one], the results for the half-inhibitory concentration (IC50) in test [1] and in test [2] (p-IKKa levels in L363 cells) were less than 100 nM and greater than 501 nM, respectively.

With `CN1CC[C@@](O)(c2cccc(-c3nc(-c4ccnc(NC5CCN(S(C)(=O)=O)CC5)n4)cs3)c2)C1=O` [Example 47, (R)-3-Hydroxy-1-methyl-3-(3-(4-(2-((1-(methylsulfonyl)piperidin-4-yl)amino)pyrimidin-4-yl)thiazol-2-yl)phenyl)pyrrolidin-2-one], the concentration for half-maximal inhibition (IC50) in test [1] was less than 100 nM; in test [2] (setting [3]) it was greater than 501 nM.

For `Cc1cccc(Nc2nccc(-c3csc(-c4cccc([C@]5(O)CCN(C)C5=O)c4)n3)n2)n1` [Example 48, (R)-3-hydroxy-1-methyl-3-(3-(4-(2-((6-methylpyridin-2-yl)amino)pyrimidin-4-yl)thiazol-2-yl)phenyl)pyrrolidin-2-one], the IC50 in test [1] was less than 100 nM; in test [2] (setting [3]), greater than 501 nM.

For the molecule `Cc1cc(Nc2nccc(-c3csc(-c4cccc([C@]5(O)CCN(C)C5=O)c4)n3)n2)nn1C` [Example 49, (R)-3-(3-(4-(2-((1,5-Dimethyl-1H-pyrazol-3-yl)amino)pyrimidin-4-yl)thiazol-2-yl)phenyl)-3-hydroxy-1-methylpyrrolidin-2-one], the half-maximal inhibitory concentration (IC50) is less than 100 nM in test [1] and 100 to 500 nM in test [2] (setting [3]).

For the molecule `CN1CC[C@@](O)(c2cccc(-c3nc(-c4nc(Nc5ccn(C)n5)ncc4F)cs3)c2)C1=O` [Example 52, (R)-3-(3-(4-(5-Fluoro-2-((1-methyl-1H-pyrazol-3-yl)amino)pyrimidin-4-yl)thiazol-2-yl)phenyl)-3-hydroxy-1-methylpyrrolidin-2-one], the values for the half-maximal inhibitory concentration (IC50) in test [1] and in test [2] (setting [3]) were 100 to 500 nM and greater than 501 nM, respectively.

In the case of `CN1CCn2nc(Nc3nccc(-c4csc(-c5cccc([C@]6(O)CCN(C)C6=O)c5)n4)n3)cc2C1=O` [Example 53, (R)-2-((4-(2-(3-(3-Hydroxy-1-methyl-2-oxopyrrolidin-3-yl)phenyl)thiazol-4-yl)pyrimidin-2-yl)amino)-5-methyl-6,7-dihydropyrazolo[1,5-a]pyrazin-4(5H)-one], the IC50 was less than 100 nM in test [1] and 100 to 500 nM in test [2] (setting [3]).

Regarding `CN1CC[C@@](O)(c2cccc(-c3nc(-c4ccnc(Nc5cnn6c5NCCC6)n4)cs3)c2)C1=O` [Example 54, (R)-3-hydroxy-1-methyl-3-(3-(4-(2-((4,5,6,7-tetrahydropyrazolo[1,5-a]pyrimidin-3-yl)amino)pyrimidin-4-yl)thiazol-2-yl)phenyl)pyrrolidin-2-one], the results for the IC50 in test [1] and in test [2] (setting [3]) were less than 100 nM and 100 to 500 nM, respectively.

Turning to `CN1CC[C@@](O)(c2cccc(-n3ccc(-c4ccnc(Nc5ccn(C)n5)n4)n3)c2)C1=O` [Example 55, (R)-3-hydroxy-1-methyl-3-(3-(3-(2-((1-methyl-1H-pyrazol-3-yl)amino)pyrimidin-4-yl)-1H-pyrazol-1-yl)phenyl)pyrrolidin-2-one], the IC50 in test [1] is less than 100 nM; in test [2] (setting [3]), 100 to 500 nM.

For `CN1CC[C@@](O)(c2cccc(-c3nc(-c4ccnc(Nc5ccn(C)n5)n4)cs3)c2)C1=O` [Example 56, (R)-3-hydroxy-1-methyl-3-(3-(4-(2-((1-methyl-1H-pyrazol-3-yl)amino)pyrimidin-4-yl)thiazol-2-yl)phenyl)pyrrolidin-2-one], the IC50 in test [1] is less than 100 nM; in test [2] (setting [3]), 100 to 500 nM.

Consider `CCn1ncc(C)c1Nc1nccc(-c2csc(-c3cccc([C@]4(O)CCN(C)C4=O)c3)n2)n1` [Example 64, (R)-3-(3-(4-(2-((1-ethyl-4-methyl-1H-pyrazol-5-yl)amino)pyrimidin-4-yl)thiazol-2-yl)phenyl)-3-hydroxy-1-methylpyrrolidin-2-one], for which the half-maximal inhibitory concentration (IC50) in test [1] and in test [2] (setting [3]) was greater than 501 nM throughout.

Consider `CN1CC[C@@](O)(c2cccc(-c3nc(-c4ccnc(Nc5ccnn5CC5CC5)n4)cs3)c2)C1=O` [Example 65, (R)-3-(3-(4-(2-((1-(cyclopropylmethyl)-1H-pyrazol-5-yl)amino)pyrimidin-4-yl)thiazol-2-yl)phenyl)-3-hydroxy-1-methylpyrrolidin-2-one], for which the IC50 was 100 to 500 nM in test [1] and greater than 501 nM in test [2] (setting [3]).
